Assay results published in patent publication US20250163002A1, “FUSED QUINONOXIME IMIDAZOLE, ONIUM DERIVATIVES THEREOF, PREPARATION AND USE THEREOF” (SHANGHAI JIAO TONG UNIVERSITY, priority 2022, published 2025).

Columns and labels:
[1] = test system: CFPAC-1 pancreatic cancer cells; test: In vivo inhibition test of cancer cell proliferation, CFPAC-1 transplant; set-up: species or system Balb/c naked mouse; conditions: 7 mg/kg, once every other three days, 7 times; gross tumor volume
Protocol: Test method: 3×10^7 CFPAC-1 pancreatic cancer cells were transplanted to subcutaneous tissues of armpit of a Balb/c naked mouse; administration was conducted when the tumor grew to 50-100 mm^3, 100-200 mm^3, and greater than 200 mm^3; the mouse was administered once every other three days, 7 times in total, and 7 mg/kg each time. Normal saline was injected in the control group. Tumor length and diameter were measured by calipers and weight of the moue was weighed until the next day of the final administration. Gross tumor volume was calculated by the following equation:
gross tumor volume (mm^3)=½×[short diameter (mm)]^2×long diameter (mm)

rectal cancer cell HT29 = test: In vitro proliferation inhibition, HT29; type: cell-based; conditions: unit inferred
Protocol: (§1) Test method: pancreatic cancer cells CFPAC-1 were cultured in a Dalbeco-improved Eagle medium with the addition of 10% FBS and 5% double-antibody. CFPAC-1 cancer cells were inoculated into a 96-well plate for incubation for 24 h; in the following day, test compounds having various concentrations of (100, 20, 10, 1, 0.1, 0.01, and 0.001 μM) and positive control agents were added per well; corresponding volume of fresh medium was added to blank control. After addition for 24 h or 48 h, cell proliferation was evaluated by chromogenic reaction of MTT formazan.
(§2) In addition, compounds (I), (II), (III), and (IV) of the present invention have good inhibition activity against the proliferation of other cancer cells, including non-small cell lung cancer cell (H460, H1299), liver tumor cell (HepG2), rectal cancer cell (HT29), leukemia cell (CCRF-CEM), prostate cancer cell (PC-3), ovarian carcinoma cell (SKOV-3), melanoma cell (A375), myeloma cell (RPMI-8226), esophageal carcinoma cell (TE-1), pancreatic cancer cell (CFPAC-1, PANC-1, SW1990, ASPC-1, and BXPC-3), bladder cancer cell (5637), and gastric cancer cell (KATO-III).

[2] = test system: pancreatic cancer cells CFPAC-1; test: In vitro proliferation inhibition, CFPAC-1; type: cell-based; conditions: unit inferred
Protocol: as §1, §2

liver tumor cell HepG2 = test: In vitro proliferation inhibition, HepG2; type: cell-based; conditions: unit inferred
Protocol: as §1, §2

MCF-7 = test: In vitro inhibition test for cancer cell proliferation (MTT), MCF-7; type: cell-based; conditions: 24 h or 48 h after addition, unit inferred
[3] = test system: esophageal carcinoma cell TE-1; test: In vitro proliferation inhibition, TE-1; type: cell-based; conditions: unit inferred
Protocol: as §1, §2

leukemia cell CCRF-CEM = test: In vitro proliferation inhibition, CCRF-CEM; type: cell-based; conditions: unit inferred
Protocol: as §1, §2

[4] = test system: pancreatic cancer cell BXPC-3; test: In vitro proliferation inhibition, BXPC-3; type: cell-based; conditions: unit inferred
Protocol: as §1, §2

[5] = test system: gastric cancer cell KATO-III; test: In vitro proliferation inhibition, KATO-III; type: cell-based; conditions: unit inferred
Protocol: as §1, §2

L929 = test: In vitro cell proliferation inhibition test (MTT), L929; type: cell-based; conditions: 24 h or 48 h after addition, unit inferred
[6] = test system: ovarian carcinoma cell SKOV-3; test: In vitro proliferation inhibition, SKOV-3; type: cell-based; conditions: unit inferred
Protocol: as §1, §2

HeLa = test: In vitro inhibition test for cancer cell proliferation (MTT), HeLa; type: cell-based; conditions: 24 h or 48 h after addition, unit inferred
[7] = test system: prostate cancer cell PC-3; test: In vitro proliferation inhibition, PC-3; type: cell-based; conditions: unit inferred
Protocol: as §1, §2

A549 = test: In vitro inhibition test for cancer cell proliferation (MTT), A549; type: cell-based; conditions: 24 h or 48 h after addition, unit inferred
[8] = test system: pancreatic cancer cell SW1990; test: In vitro proliferation inhibition, SW1990; type: cell-based; conditions: unit inferred
Protocol: as §1, §2

[9] = test system: non-small cell lung cancer cell H460; test: In vitro proliferation inhibition, H460; type: cell-based; conditions: unit inferred
Protocol: as §1, §2

bladder cancer cell 5637 = test: In vitro proliferation inhibition, 5637; type: cell-based; conditions: unit inferred
Protocol: as §1, §2

[10] = test system: non-small cell lung cancer cell H1299; test: In vitro proliferation inhibition, H1299; type: cell-based; conditions: unit inferred
Protocol: as §1, §2

Adenovirus = test: Antiviral activity, plaque test in 293A cells; type: cell-based; conditions: adenovirus in 293A cells
Protocol: Experimental method: 4.59 mg of the compound 125 were weighed and put to a 15 mL centrifugal tube with the addition of 10 mL of sterile water, and dissolved via vortex oscillation until there was no obvious yellow particle, then subpackaged and stored at −20° C., 200 μL/piece (concentration: 1 mM); 2.79 mg Cidofovir (molecular weight: 279) were weighed and added to the 15 mL centrifugal tube, dissolved with the addition of 10 mL sterile water, then subpackaged and stored at −20° C., 200 μL/piece (concentration: 1 mM).
Plaque test: • 1. 293A cells were paved into a 24-well plate with 150,000 cells per well, and cultured at 37° C. for 12-24 h, then used for test after growing to 90%. • 2. 2% low-melting point agarose gel was melted and put to a 56° C. water bath kettle for further use. • 3. Adenovirus having a titer of 10^9 TCID^50/mL was diluted by 10^5 folds; medium in the 24-well plate was removed, and 200 μL of adenoviral diluent was added per well and incubated in a 37° C. 5% CO2 incubator, shaken once every 30 min, and incubated for 1 h in total. • 4. The drug compound 125 to be tested and Cidofovir were double diluted with 2×MEM (16 μL compound 125 was added to 8 mL of 2×MEM, oscillated and mixed well, then 4 mL mixed solution was taken and added to fresh 4 mL of 2×MEM and mixed well, and 5 dilutions were conducted, being 2 μM, 1 μM, 500 nM, 250 nM, and 125 nM, respectively; the maximum concentration of the compound 125 was 1 μM. Similarly, 400 μL Cidofovir was added to 7.6 mL of 2×MEM, oscillated and mixed well, then 4 mL mixed solution was taken and added to fresh 4 mL of 2×MEM and mixed well, and 5 dilutions were conducted, being 50 μM, 25 μM, 12.5 μM, 6.25 μM, and 3.125 μM, respectively); the diluted solution was put at 37° C. for further use. • 4. The viral solution was discarded, and agarose gel preheated at 56° C. was added to 2×MEM by the same volume and mixed well, and then 2 mL of mixed solution was added per well, and incubated at room temperature for 30 min (gel). • 5. […]

melanoma cell A375 = test: In vitro proliferation inhibition, A375; type: cell-based; conditions: unit inferred
Protocol: as §1, §2

[11] = test system: pancreatic cancer cell ASPC-1; test: In vitro proliferation inhibition, ASPC-1; type: cell-based; conditions: unit inferred
Protocol: as §1, §2

myeloma cell RPMI-8226 = test: In vitro proliferation inhibition, RPMI-8226; type: cell-based; conditions: unit inferred
Protocol: as §1, §2

[12] = test system: pancreatic cancer cell PANC-1; test: In vitro proliferation inhibition, PANC-1; type: cell-based; conditions: unit inferred
Protocol: as §1, §2

[13] = Compound toxicity test, body weight changes; type: in vivo, balb/c mice; conditions: tail intravenous injection, 5 mg/kg every day for 7 consecutive days
Protocol: Test method: the compounds 121, 123, 124, 125, 128, 132, 137, 138, 139, 140, 143, 144, 145, 146, and 147 in the examples of the present invention were administered every day via tail intravenous injection at a dose of 5 mg/kg for 7 consecutive days, and then body weight changes of the balb/c mice were monitored.

In the case of Cn1c[n+](C)c2c1C(=O)c1ccccc1C2=NOCc1ccccc1.[I-] [Compound 125, (E) and (Z)-4-((benzyloxy)imino)-1,3-dimethyl-9-oxo-4,9-dihydro-1H-naphthol[2,3-d]imidazole-3-iodide], the “proliferation inhibition activity / inhibition ratio” value [1] is reported as 100%, the IC50 (rectal cancer cell HT29) is reported as 5400 nM and the IC50 [2] is reported as 6 nM. It also gave an IC50 (liver tumor cell HepG2) of 9 nM, an IC50 (MCF-7) of 4500 nM and an IC50 [3] of 60 nM. It also gave an IC50 (leukemia cell CCRF-CEM) of 90 nM, an IC50 [4] of 3 nM and an IC50 [5] of 9 nM. It also gave an IC50 (L929) of 45300 nM, an IC50 [6] of 90 nM and an IC50 (HeLa) of 5300 nM. It also gave an IC50 [7] of 26500 nM, an IC50 (A549) of 5 nM and an IC50 [8] of 9 nM. The IC50 [9] was 160 nM, the IC50 (bladder cancer cell 5637) was 40 nM and the IC50 [10] was 260 nM. The “effect on viral replication” value (Adenovirus) was “inhibiting effect on viral replication”, the IC50 (melanoma cell A375) was 2210 nM and the IC50 [11] was 5 nM. It also gave an IC50 (myeloma cell RPMI-8226) of 89000 nM and an IC50 [12] of 970 nM.

For Nc1ccn([C@@H]2O[C@H](CO)[C@@H](O)C2(F)F)c(=O)n1 [gemcitabine], the “condition and body weight changes of the mice” value [13] was “obviously reduced weight and are dispirited”.
